The source made the active and inactive calls. The rule behind the calls is not given here.
Experiments:
OCT1 (SLC22A1) = target: T1, OCT1 (SLC22A1) (Homo sapiens, UniProt O15245); test: Inhibition of OCT1(unknown origin)-mediated ASP+ uptake in HEK293 cells expressing OCT1 using ASP+ as substrate at 50 uM incubated for 5 mins by fluorescence based microplate reader analysis relative to control; assay type: cell-based; settings: HEK293 cells expressing OCT1, probe ASP+
T1 sequence (O15245 whole entry): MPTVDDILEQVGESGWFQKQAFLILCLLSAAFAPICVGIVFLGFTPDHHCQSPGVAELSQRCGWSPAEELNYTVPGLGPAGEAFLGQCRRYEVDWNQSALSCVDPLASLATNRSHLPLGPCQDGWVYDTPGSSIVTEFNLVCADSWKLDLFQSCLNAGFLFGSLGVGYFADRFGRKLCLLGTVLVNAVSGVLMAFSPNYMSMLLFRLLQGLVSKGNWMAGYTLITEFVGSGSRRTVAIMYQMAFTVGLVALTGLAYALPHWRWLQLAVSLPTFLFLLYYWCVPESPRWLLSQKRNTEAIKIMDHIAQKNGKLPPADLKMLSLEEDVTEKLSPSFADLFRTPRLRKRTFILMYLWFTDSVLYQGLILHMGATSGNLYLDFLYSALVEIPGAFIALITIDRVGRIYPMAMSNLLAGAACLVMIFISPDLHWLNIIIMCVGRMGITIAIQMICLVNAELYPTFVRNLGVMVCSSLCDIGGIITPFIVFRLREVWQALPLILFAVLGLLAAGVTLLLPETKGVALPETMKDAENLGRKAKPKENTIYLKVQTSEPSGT

[1] = target: T2, Solute carrier family 22 member 2 (Homo sapiens, UniProt O15244); test: Inhibition of OCT2(unknown origin)-mediated ASP+ uptake in HEK293 cells expressing OCT2 using ASP+ as substrate incubated for 5 mins; assay type: cell-based
T2 sequence (O15244 whole entry): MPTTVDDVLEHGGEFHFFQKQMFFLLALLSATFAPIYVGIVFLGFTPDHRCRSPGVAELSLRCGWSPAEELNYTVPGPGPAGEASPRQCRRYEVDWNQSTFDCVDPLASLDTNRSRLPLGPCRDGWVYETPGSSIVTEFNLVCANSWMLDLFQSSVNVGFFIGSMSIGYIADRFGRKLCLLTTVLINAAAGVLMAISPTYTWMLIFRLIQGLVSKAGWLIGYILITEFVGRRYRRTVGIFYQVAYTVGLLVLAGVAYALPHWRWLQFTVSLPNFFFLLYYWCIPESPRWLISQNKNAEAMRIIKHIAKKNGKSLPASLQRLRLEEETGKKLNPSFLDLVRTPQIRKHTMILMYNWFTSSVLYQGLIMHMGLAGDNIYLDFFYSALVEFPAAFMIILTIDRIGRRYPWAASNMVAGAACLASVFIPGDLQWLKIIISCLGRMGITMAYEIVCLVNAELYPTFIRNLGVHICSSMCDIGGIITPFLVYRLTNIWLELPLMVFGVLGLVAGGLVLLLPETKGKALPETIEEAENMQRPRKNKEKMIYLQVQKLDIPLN

[2] = target: T3, Solute carrier family 22 member 1 (Homo sapiens, UniProt O15245); test: Inhibition of OCT1(unknown origin)-mediated ASP+ uptake in HEK293 cells expressing OCT1 using ASP+ as substrate incubated for 5 mins; assay type: cell-based
T3 sequence (O15245 whole entry): T1 sequence (O15245 whole entry)

HEK293 [3] = test: Cytotoxicity against HEK293 cells expressing OCT2 assessed as reduction in cell viability at 250 uM incubated for 12 hrs by resazurin dye based assay; assay type: toxicity; settings: human, hek293, 12 h
HEK293 [4] = test: Cytotoxicity against HEK293 cells harboring empty vector assessed as reduction in cell viability at 250 uM incubated for 12 hrs by resazurin dye based assay; assay type: toxicity; settings: human, hek293, 12 h
HEK293 [5] = test: Cytotoxicity against HEK293 cells expressing OCT1 assessed as reduction in cell viability at 250 uM incubated for 12 hrs by resazurin dye based assay; assay type: toxicity; settings: human, hek293, 12 h
HEK293 [6] = test: Selectivity index, ratio of IC50 for inhibition of OCT2(unknown origin)-mediated ASP+ uptake in HEK293 cells expressing OCT2 to IC50 for inhibition of OCT1(unknown origin)-mediated ASP+ uptake in HEK293 cells expressing OCT1; assay type: cell-based; settings: Homo sapiens
[7] = Activation of AMPK signalling pathway in human HepG2 cells expressing OCT1 assessed as decrease in FASN mRNA expression at 2.5 to 10 uM incubated for 1 to 24 hrs by qRT-PCR analysis; assay type: cell-based; settings: filed as activator, dose 2.5-10 µM, time 1-24 hrs
[8] = Activation of AMPK signalling pathway in human L02 cells expressing OCT1 assessed as decrease in FASN mRNA expression at 2.5 to 10 uM incubated for 1 to 24 hrs by qRT-PCR analysis; assay type: cell-based; settings: filed as activator, dose 2.5-10 µM, time 1-24 hrs
HepG2 [9] = test: Inhibition of FFA-induced lipid accumulation in human HepG2 cells expressing OCT1 assessed as decrease in triglyceride level at 10 uM incubated for 24 hrs; assay type: functional, cell-based
L02 [10] = test: Inhibition of FFA-induced lipid accumulation in human L02 cells expressing OCT1 at 10 uM incubated for 24 hrs by Oil Red O staining based microscopic analysis; assay type: functional, cell-based
[11] = Activation of AMPK signalling pathway in human L02 cells expressing OCT1 assessed as increase in AMPK phosphorylation at 2.5 to 10 uM incubated for 1 to 24 hrs by Western blot analysis; assay type: cell-based; settings: filed as activator, dose 2.5-10 µM, time 1-24 hrs
[12] = Activation of AMPK signalling pathway in human L02 cells expressing OCT1 assessed as decrease in ACC mRNA expression at 2.5 to 10 uM incubated for 1 to 24 hrs by qRT-PCR analysis; assay type: cell-based; settings: filed as activator, dose 2.5-10 µM, time 1-24 hrs
L02 [13] = test: Inhibition of FFA-induced lipid accumulation in human L02 cells expressing OCT1 assessed as decrease in triglyceride level at 10 uM incubated for 24 hrs; assay type: functional, cell-based
HepG2 [14] = test: Inhibition of FFA-induced lipid accumulation in human HepG2 cells expressing OCT1 at 10 uM incubated for 24 hrs by Oil Red O staining based microscopic analysis; assay type: functional, cell-based
[15] = Activation of AMPK signalling pathway in human HepG2 cells expressing OCT1 assessed as decrease in ACC mRNA expression at 2.5 to 10 uM incubated for 1 to 24 hrs by qRT-PCR analysis; assay type: cell-based; settings: filed as activator, dose 2.5-10 µM, time 1-24 hrs
[16] = Activation of AMPK signalling pathway in human HepG2 cells expressing OCT1 assessed as increase in AMPK phosphorylation at 2.5 to 10 uM incubated for 1 to 24 hrs by Western blot analysis; assay type: cell-based; settings: filed as activator, dose 2.5-10 µM, time 1-24 hrs

Row | SMILES | inhibition at 5 min, 50 µM (OCT1 (SLC22A1)) | IC50 [1] | IC50 [2] | Activity (HEK293 [3]) | Activity (HEK293 [4]) | Activity (HEK293 [5]) | Ratio IC50 (HEK293 [6]) | Activity [7] | Activity [8] | inhibition (HepG2 [9]) | inhibition (L02 [10]) | Activity [11] | Activity [12] | inhibition (L02 [13]) | inhibition (HepG2 [14]) | Activity [15] | Activity [16]
1 | CC(C)=CCc1c(O)cc(O)c2c(=O)c(O[C@@H]3O[C@@H](C)[C@H](O)[C@@H](O)[C@H]3O[C@@H]3O[C@H](CO)[C@@H](O)[C@H](O)[C@H]3O)c(-c3ccc(O)cc3)oc12 | > 50% | 56.5 µM | 11.2 µM | Non-Toxic | Non-Toxic | Non-Toxic |  |  |  |  |  |  |  |  |  |  | 
2 | C[C@H]1O[C@@H](O[C@H]2CC[C@@]3(C)[C@@H](CC[C@]4(C)[C@@H]3C=CC3=C5CC(C)(C)CC[C@]5(CO)[C@@H](O)C[C@]34C)[C@]2(C)CO)[C@H](O)[C@@H](O[C@@H]2O[C@H](CO)[C@@H](O)[C@H](O)[C@H]2O)[C@H]1O | > 50% | 69.5 µM | 35.2 µM | Non-Toxic | Non-Toxic | Non-Toxic |  |  |  |  |  |  |  |  |  |  | 
3 | C/C=C1\C2CC(=O)OC[C@@H](c3ccc(O)c(O)c3)OC[C@H]3O[C@@H](O[C@@H]1OC=C2C(=O)OC)[C@H](O)[C@@H](O)[C@@H]3O | > 50% | 1270 µM | 47.3 µM | Non-Toxic | Non-Toxic | Non-Toxic |  |  |  |  |  |  |  |  |  |  | 
4 | COc1ccc(-c2oc3cc(OC)cc(OC)c3c(=O)c2OC)cc1 [TETRAMETHYLKAEMPFEROL] | > 50% | 39.5 µM | 47 µM | Non-Toxic | Non-Toxic | Non-Toxic |  |  |  |  |  |  |  |  |  |  | 
5 | CNC(=C[N+](=O)[O-])NCCSCc1ccc(CN(C)C)o1 [RANITIDINE] |  | 1620 µM | 28 µM |  |  |  | 39.6 |  |  |  |  |  |  |  |  |  | 
6 | O=c1cc(-c2ccc(O)c(O)c2)oc2cc(O)cc(O)c12 [LUTEOLIN] | > 50% | 41 µM | 46.1 µM | Non-Toxic | Non-Toxic | Non-Toxic |  |  |  |  |  |  |  |  |  |  | 
7 | C[C@@H]1CC[C@@]2(OC1)O[C@H]1C[C@H]3[C@@H]4CC=C5C[C@@H](O)C[C@@H](O[C@@H]6O[C@H](C)[C@H](O)[C@H](O[C@@H]7OC[C@@H](O)[C@H](O)[C@H]7O)[C@H]6O[C@@H]6O[C@@H](C)[C@H](O)[C@@H](O)[C@H]6O)[C@]5(C)[C@H]4CC[C@]3(C)[C@H]1[C@@H]2C | > 50% | 19.1 µM | 41.3 µM | Non-Toxic | Non-Toxic | Non-Toxic |  |  |  |  |  |  |  |  |  |  | 
8 | C[C@@]12C[C@@]3(O)O[C@@H](O1)[C@]1(COC(=O)c4ccccc4)[C@H]3C[C@@]12O[C@@H]1O[C@H](COC(=O)c2ccccc2)[C@@H](O)[C@H](O)[C@H]1O | > 50% | 4120 µM | 3.46 µM | Non-Toxic | Non-Toxic | Non-Toxic | > 1000 | Active | Active | Active | Active | Active | Active | Active | Active | Active | Active

The next lines start with results.

Row | inhibition at 5 min, 50 µM (OCT1 (SLC22A1)) | IC50 [1] | IC50 [2] | SMILES | Activity (HEK293 [3]) | Activity (HEK293 [4]) | Activity (HEK293 [5]) | Ratio IC50 (HEK293 [6]) | Activity [7] | Activity [8] | inhibition (HepG2 [9]) | inhibition (L02 [10]) | Activity [11] | Activity [12] | inhibition (L02 [13]) | inhibition (HepG2 [14]) | Activity [15] | Activity [16]
9 | > 50% | 30.9 µM | 38.9 µM | O=c1cc(-c2ccc(O)cc2)oc2cc(O)cc(O)c12 [APIGENIN] | Non-Toxic | Non-Toxic | Non-Toxic |  |  |  |  |  |  |  |  |  |  | 
10 |  | 45.9 µM | 39.6 µM | NC12CC3CC(CC(C3)C1)C2 [AMANTADINE] |  |  |  | 1.16 |  |  |  |  |  |  |  |  |  | 
11 | > 50% | 33.1 µM | 40.2 µM | CC(C)=CCc1cc(-c2cc(=O)c3c(O)cc(O)c(CC=C(C)C)c3o2)cc(O)c1O | Non-Toxic | Non-Toxic | Non-Toxic |  |  |  |  |  |  |  |  |  |  | 
12 | > 50% | 17.3 µM | 38.4 µM | COc1cc(O)c2c(c1)oc(=O)c1c3cc(O)c(O)cc3oc21 [WEDELOLACTONE] | Non-Toxic | Non-Toxic | Non-Toxic |  |  |  |  |  |  |  |  |  |  | 
